From patent US10047105B2, “Gyrase inhibitors” (Merck Sharp & Dohme Corp., priority 2009, dated 2018)
Values after ≈ are worked out from the molar mass of the structure shown.

Key:
[1] = test system: S. aureus ATCC 13709; assay: MIC, antibacterial potency, S. aureus; type: cell-based
[2] = test system: S. pneumoniae ATCC 51916; assay: MIC, S. pneumoniae; type: cell-based
[3] = S. pneumoniae (Spn52), in µg/mL

Row | SMILES | MIC, SA ([1]; S. aureus) [µg/mL] | MIC Spn52 ([2]; S. pneumoniae) [µg/mL] | MIC, SA ([1]; S. aureus (SA), in µg/mL) | MIC Spn52 [2, 3]
1 | CCc1[nH]c2nc(Sc3cnc4nccnc4c3)nc(N3CC(CNS(C)(=O)=O)C3)c2c1Br [700,468] | ≤ 0.5 | 1 (≈ 1.82 µM) |  | 
2 | CCc1[nH]c2nc(Oc3cncnc3)nc(N3CC(N)C3)c2c1Br [700,877] |  |  | 4 | 8
3 | CCc1[nH]c2nc(Sc3cnc4nccnc4c3)nc(N3CCC4(CCCN4)C3)c2c1Cl (stereo not shown) [700,547] | 4 (≈ 8.57 µM) | 4 (≈ 8.57 µM) |  | 
4 | CCOc1nc(Sc2cnc3cccnc3n2)nc2[nH]c(CC)c(Cl)c12 [700,298] | 2 (≈ 5.17 µM) | 8 (≈ 20.7 µM) |  | 
5 | CCc1[nH]c2nc(Sc3cnc4c(c3)ncn4CC)nc(N3CC(O)C3)c2c1Br [700,405] | ≤ 0.5 | 2 (≈ 4.22 µM) |  | 
6 | CCOc1nc(Sc2cnc3cccnc3n2)nc2[nH]c(CC)c(Br)c12 [700,297] | ≤ 0.5 | 2 (≈ 4.64 µM) |  | 
7 | CCc1[nH]c2nc(Sc3cnc4cccnc4c3)nc(N3C[C@H](N)C[C@@H]3CO)c2c1Cl [700,870] |  |  | 64 | 64
8 | CCOc1nc(Sc2ccc(NC3CC3)nn2)nc2[nH]c(CC)c(Cl)c12 [700,324] | > 64 | 64 (≈ 164 µM) |  | 
9 | CCc1nc2c(N(C)C)nc(Sc3cccc(C(=O)O)c3)nc2[nH]1.O=C(O)C(F)(F)F [700,220] | > 64 | 64 |  | 
10 | CCc1[nH]c2nc(Sc3cc(=O)n(CCC4CCCCC4)c(=O)[nH]3)nc(N3CC(O)C3)c2c1Br [700,412] | > 64 | > 64 |  | 
11 | CCc1[nH]c2nc(Sc3cnc4nccnc4c3)nc(N3CC(NC(=O)OCc4ccccc4)C3)c2c1Br [700,404] | ≤ 0.5 | ≤ 0.5 |  | 
12 | CCc1[nH]c2nc(Sc3cccnc3)nc(NCc3ccccc3OC)c2c1Br.O=C(O)C(F)(F)F [700,271] | > 64 | > 64 |  | 
13 | CCc1[nH]c2nc(Sc3cnc4nccnc4c3)nc(N3CC(CNC(=O)[C@@H]4CCC(=O)N4)C3)c2c1Cl [700,520] | 8 (≈ 14.9 µM) | 16 (≈ 29.7 µM) |  | 
14 | CCc1[nH]c2nc(Sc3cnc4nccnc4c3)nc(N3CC4CNCC4C3)c2c1Cl.O=C(O)C(F)(F)F (stereo not shown) [700,565] | 2 | 4 |  | 
15 | CCc1[nH]c2nc(Sc3cncnc3)nc(N3CC4CNC4C3)c2c1Cl (stereo not shown) [700,785] | 16 (≈ 41.2 µM) | 64 (≈ 165 µM) |  | 
16 | CCc1[nH]c2nc(Sc3cnc4nccnc4c3)nc(N3CC(C)(N)C3)c2c1Cl.O=C(O)C(F)(F)F.O=C(O)C(F)(F)F [700,630] | 4 | 8 |  | 
17 | CCc1[nH]c2nc(Sc3cnc4nccnc4c3)nc(N3CC(O)C3)c2c1Cl [700,393] | ≤ 0.5 | 1 (≈ 2.42 µM) |  | 
18 | CCc1[nH]c2nc(Sc3cncc(C#N)c3)nc(N3CC[C@@H](N)C3)c2c1Cl [700,824] |  |  | 2 | 8
19 | CCc1[nH]c2nc(Sc3cnc(N)nc3)nc(N3CC4C(N)C4C3)c2c1Cl (stereo not shown) [700,789] |  |  | 2 | 8
20 | CCc1[nH]c2nc(Sc3cccc(NC(=O)OC)c3)nc(NC[C@H](C)O)c2c1Br [700,295] | > 64 | 32 (≈ 66.6 µM) |  | 
21 | CCc1[nH]c2nc(Sc3ccc4c(N5CC(N)C5)ncnc4c3)nc(N3CCC(N)C3)c2c1Cl (stereo not shown) [700,597] | 16 (≈ 32.3 µM) | 16 (≈ 32.3 µM) |  | 
22 | CCc1[nH]c2nc(Sc3cnc4ccoc4c3)nc(N3CCC(N)C3)c2c1Br.O=C(O)C(F)(F)F (stereo not shown) [700,679] | > 64 | > 64 |  | 
23 | CCc1[nH]c2nc(Sc3cnc4nccnc4c3)nc(N3C[C@H](N)C[C@@H]3CO)c2c1Cl [700,868] |  |  | >64 | >64

Row | SMILES | MIC, SA ([1]; S. aureus) [µg/mL] | MIC Spn52 ([2]; S. pneumoniae) [µg/mL] | MIC, SA ([1]; S. aureus (SA), in µg/mL) | MIC Spn52 [2, 3]
24 | CCc1[nH]c2nc(Oc3cccnc3)nc(Oc3cccnc3)c2c1C(F)(F)F.O=C(O)C(F)(F)F [700,654] | > 64 | > 64 |  | 
25 | CCc1[nH]c2nc(Sc3cnc4nccnc4c3)nc(N3CC(CNC(=O)C4CCC4)C3)c2c1Cl [700,517] | ≤ 0.5 | 2 (≈ 3.93 µM) |  | 
26 | CCc1[nH]c2nc(Sc3ccc4cc(C#N)cnc4c3)nc(N3CC(CN)C3)c2c1Cl [700,716] | 1 (≈ 2.22 µM) | 2 (≈ 4.44 µM) |  | 
27 | CCc1[nH]c2nc(Nc3cnc4c(c3)nnn4C(C)C)nc(N3CC(N)C3)c2c1Br.O=C(O)C(F)(F)F.O=C(O)C(F)(F)F [700,484] | 4 | 8 |  | 
28 | O=C(O)C(F)(F)F.OCCc1[nH]c2nc(Oc3cccnc3)nc(Oc3cncnc3)c2c1Cl [700,577] | > 64 | > 64 |  | 
29 | CCc1[nH]c2nc(Sc3cnc4ncc(=O)[nH]c4c3)nc(N3CC[C@@H](N)C3)c2c1Cl [700,712] | 8 (≈ 18.1 µM) | > 64 |  | 
30 | CCc1[nH]c2nc(Oc3cccnc3)nc(Oc3cncnc3)c2c1Br.O=C(O)C(F)(F)F [700,621] | 4 | 8 |  | 
31 | CCc1[nH]c2nc(Sc3ccc4cc5c(nc4c3)CCNC5)nc(N3CC[C@@H](N)C3)c2c1Cl [700,841] |  |  | 4 | 8
32 | CCc1[nH]c2nc(Sc3cnc4nccnc4c3)nc(Oc3ccc(OC)c(C#N)c3)c2c1Cl [700,834] |  |  | 1 | 8
33 | CCc1[nH]c2nc(Sc3ccc4c(N)nc(C)nc4c3)nc(N3CC[C@@H](N)C3)c2c1Cl [700,717] | 2 (≈ 4.4 µM) | 4 (≈ 8.79 µM) |  | 
34 | CCc1[nH]c2nc(Sc3cnc4nccnc4c3)nc(N3CC4CNC4C3)c2c1Br.O=C(O)C(F)(F)F (stereo not shown) [700,673] | 2 | 4 |  | 
35 | CCc1[nH]c2nc(Sc3cncnc3)nc(N3CC(N)C3)c2c1Cl [700,574] | 4 (≈ 11.1 µM) | 16 (≈ 44.2 µM) |  | 
36 | CCc1[nH]c2nc(SC)nc(CCC3OCCCO3)c2c1Br [700,332] | > 64 | > 64 |  | 
37 | CCc1[nH]c2nc(Sc3cncc(O)c3)nc(N3CC[C@@H](N)C3)c2c1Cl [700,821] |  |  | >64 | >64
38 | CCc1[nH]c2nc(Sc3cnc4nccnc4c3)nc(N3CC(NC(=O)COC)C3)c2c1Cl [700,438] | ≤ 0.5 | 1 (≈ 2.06 µM) |  | 
39 | CCc1[nH]c2nc(Sc3cnc4cccnc4c3)nc(N3CC(C4(N)CC4)C3)c2c1Cl [700,706] | 1 (≈ 2.21 µM) | 2 (≈ 4.42 µM) |  | 
40 | CCc1[nH]c2nc(Sc3cccnc3)nc(N3CC(N)C3)c2c1Cl [700,560] | 8 (≈ 22.2 µM) | 32 (≈ 88.7 µM) |  | 
41 | CCc1[nH]c2nc(Sc3ccc4c(N5CC(N)C5)cc(C(=O)O)nc4c3)nc(N3CC4C(N)C4C3)c2c1Cl (stereo not shown) [700,661] | > 64 | > 64 |  | 
42 | C=CCc1nc(Cc2cccnc2)nc2[nH]c(CC)c(Cl)c12 [700,584] | 8 (≈ 25.6 µM) | 32 (≈ 102 µM) |  | 
43 | CCc1[nH]c2nc(Sc3cnc4nccnc4c3)nc(N3CC(NCc4cccnc4)C3)c2c1Cl [700,539] | ≤ 0.5 | 1 (≈ 1.98 µM) |  | 
44 | CCc1[nH]c2nc(Sc3cnc4cccnc4c3)nc(N3CC(C(=O)N4CC(N)C4)C3)c2c1Cl [700,876] |  |  | 8 | 8
45 | CCc1[nH]c2nc(Sc3ccc4ccc(C(=O)O)nc4c3)nc(N3CC[C@@H](N)C3)c2c1Cl [700,719] | 2 (≈ 4.26 µM) | > 64 |  | 
46 | CCc1[nH]c2nc(Sc3cnc4nccnc4c3)nc(OC3CNC3)c2c1Cl [700,486] | 16 (≈ 38.7 µM) | 8 (≈ 19.3 µM) |  | 

Row | SMILES | MIC, SA ([1]; S. aureus) [µg/mL] | MIC Spn52 ([2]; S. pneumoniae) [µg/mL] | MIC, SA ([1]; S. aureus (SA), in µg/mL) | MIC Spn52 [2, 3]
47 | CCc1[nH]c2nc(Sc3cnc4c(N)nc(CN5CCNCC5)nc4c3)nc(N3CC[C@@H](N)C3)c2c1Cl [700,826] |  |  | 8 | 32
48 | CCc1[nH]c2nc(Sc3nc(C(=O)O)co3)nc(N3CC(O)C3)c2c1Cl.O=C(O)C(F)(F)F.O=C(O)C(F)(F)F [700,395] | > 64 | > 64 |  | 
49 | CCc1[nH]c2nc(Oc3cccnc3)nc(N3CCN(C(C)=O)CC3)c2c1Cl.O=C(O)C(F)(F)F [700,459] | 16 | 32 |  | 
50 | CCc1[nH]c2nc(Sc3cnc4nccnc4c3)nc(N3CC(NC(=O)c4cnccn4)C3)c2c1Cl [700,439] | ≤ 0.5 | 1 (≈ 1.93 µM) |  | 
51 | CCc1[nH]c2nc(Sc3cnc4nccnc4c3)nc(Oc3cccnc3)c2c1Cl [700,432] | 1 (≈ 2.29 µM) | 4 (≈ 9.18 µM) |  | 
52 | CCc1[nH]c2nc(Sc3cnc4nccnc4c3)nc(N3CCc4nc(N)sc4C3)c2c1Cl [700,456] | ≤ 0.5 | 4 (≈ 8.06 µM) |  | 
53 | CCc1[nH]c2nc(Sc3cnc4nccnc4c3)nc(N3C[C@@H]4[C@H](C3)[C@@]4(N)CN)c2c1Cl [700,884] |  |  | 4 | 16
54 | CCc1[nH]c2nc(Sc3cnc4nccnc4c3)nc(N3CC[C@@H](N)C3)c2c1Cl [700,618] | ≤ 0.5 | 2 (≈ 4.68 µM) |  | 
55 | CCc1[nH]c2nc(Sc3cnc4nccnc4c3)nc(N3CCNCC3)c2c1Cl.O=C(O)C(F)(F)F [700,791] |  |  | 64 | 16
56 | CCc1[nH]c2nc(Sc3ccc4nc[nH]c(=O)c4c3)nc(N3CC[C@@H](N)C3)c2c1Cl [700,710] | 1 (≈ 2.26 µM) | 8 (≈ 18.1 µM) |  | 
57 | CCc1[nH]c2nc(Sc3cnc4nccnc4c3)nc(N3CC[C@H](N(C)C)C3)c2c1Cl.O=C(O)C(F)(F)F [700,497] | 1 | 4 |  | 
58 | CCc1[nH]c2nc(Sc3cnc4nccnc4c3)nc(N3CC(N)C4(CC4)C3)c2c1Cl.O=C(O)C(F)(F)F (stereo not shown) [700,678] | 1 | 2 |  | 
59 | CCc1[nH]c2nc(Sc3cnc4nccnc4c3)nc(N3C[C@@H]4[C@@H](N)[C@@H]4C3)c2c1Cl [700,816] |  |  | <=0.5 | <=0.5
60 | CCc1[nH]c2nc(Sc3cc(=O)n(CCc4ccccc4)c(=O)[nH]3)nc(N3CC(O)C3)c2c1Br [700,413] |  | 8 (≈ 14.7 µM) |  | 
61 | CCc1[nH]c2nc(Sc3cccnc3)nc(N(C)C)c2c1C=O [700,136] | 16 (≈ 48.9 µM) |  |  | 
62 | CCc1[nH]c2nc(SCc3cccnc3)nc(N)c2c1C [700,148] | > 64 |  |  | 
63 | CCc1[nH]c2nc(Sc3nc4ccccc4s3)nc(NN)c2c1C=O [700,108] | > 64 |  |  | 
64 | CCc1[nH]c2nc(Sc3nc4ccccc4s3)nc(NCCCn3ccnc3)c2c1C=O [700,107] | > 64 |  |  | 
65 | CCc1[nH]c2nc(Sc3cccnc3)nc(NC(C)C)c2c1C=O [700,093] | > 64 |  |  | 
66 | CCc1[nH]c2nc(Sc3cccnc3)nc(NCC3CCCO3)c2c1C=O (stereo not shown) [700,092] | 64 (≈ 167 µM) |  |  | 
67 | CCc1[nH]c2nc(Sc3cccnc3)nc(NCc3ccccc3)c2c1C=O [700,080] | > 64 |  |  | 
68 | CCc1[nH]c2nc(Sc3cccnc3)nc(NCCOc3ccccc3)c2c1C=O [700,079] | > 64 |  |  | 
